Patent US20190381084A1, “COMBINATION THERAPY” (NUCANA BIOMED LIMITED, priority 2015, published 2019)
Like-named read-outs stand apart in the source and are kept apart here.

Assays:
5637 = test: Single agent cytotoxicity assay (CellTiter-Glo); assay type: cell-based; details: CTG assay, 72 h
Experimental: (§1) A2780, SK-OV-3, OVCAR-3, NCI-H460, NCI-H1975, NCI-H2122, 5637 and HT1376 were cultured in RPMI Medium 1640 (Invitrogen-22400105) supplemented with 10% fetal bovine serum (FBS; Invitrogen-10099141). All the cell lines were maintained in a humidified incubator at 37° C. with 5% CO2. Cell culture media and supplements were purchased from Invitrogen, and tissue culture flasks were purchased from Corning, 96-well plates and 384-well plates were purchased from Greiner. CellTiter-Glo Luminescent Cell Viability Assay kits were purchased from Promega (Promega-G7573), cells counter Vi-Cell was purchased from Beckman, detection instrument Envision was purchased from PerkinElmer.
(§2) Paclitaxcel (used as a reference) and cisplatin were purchased from SELLECK, and they were of highest purity available. All compounds attained solubility in DMSO and when diluted into culture media. DMSO, compounds solutions and culture media were warmed to 37° C. for the solution preparation and dilutions.
(§3) Eight cell lines were allowed to adhere to 96-well plates overnight (100 μL/well), for drug treatments with 3.16 fold dilution, 9 dose points, triplicates or vehicle control, compound stock solutions were prepared in DMSO and added to the wells to give the indicated final drug concentrations. Final DMSO concentration was 0.5%. Cellular ATP concentrations were assessed by using the CellTiter-Glo Cell Viability Assay as per the manufacturer's instructions 72 h after drug addition.
(§4) Stage 1: Single Agent IC50 Determination
(§5) In Stage 1 the IC50 (using 5 or more concentrations) of each individual compound cisplatin, carboplatin, gemcitabine and NUC-1031) in the relevant cell lines was determined.

A2780 = test: Single agent cytotoxicity assay (CellTiter-Glo); assay type: cell-based; details: CTG assay, 72 h; for IC50: Homo sapiens
Experimental: as §1, §2, §3, §4, §5

HT1376 = test: Single agent cytotoxicity assay (CellTiter-Glo); assay type: cell-based; details: 72 h; for IC50: Homo sapiens, HT-1376, CTG assay
Experimental: as §1, §2, §3, §4, §5

NCI-H1975 = test: Single agent cytotoxicity assay (CellTiter-Glo); assay type: cell-based; details: CTG assay, 72 h; for IC50: Homo sapiens
Experimental: as §1, §2, §3, §4, §5

NCI-H460 = test: Single agent cytotoxicity assay (CellTiter-Glo); assay type: cell-based; details: CTG assay, 72 h; for IC50: Homo sapiens
Experimental: as §1, §2, §3, §4, §5

OVCAR-3 = test: Single agent cytotoxicity assay (CellTiter-Glo); assay type: cell-based; details: CTG assay, 72 h; for IC50: Homo sapiens
Experimental: as §1, §2, §3, §4, §5

SK-OV-3 = test: Single agent cytotoxicity assay (CellTiter-Glo); assay type: cell-based; details: 72 h; for IC50: Homo sapiens, SK-OV-3, SK-OV3, CTG assay
Experimental: as §1, §2, §3, §4, §5

[1] = ProGem1 phase I study in subjects with advanced solid malignancies; assay type: in vivo, human
Text: ProGem1 was a first-time-in-human (FTIH), phase I, open label, two stage study to investigate the safety, tolerability, clinical efficacy, pharmacokinetics (PK) and pharmacodynamics (PD) of NUC-1031 given in two parallel dosing schedules in subjects with advanced solid malignancies (EudraCT Number: 2011-005232-26). Subjects had the following tumour types at study entry: colorectal cancer (7 subjects), unknown primary (3), ovarian cancer (12), breast cancer (4), pancreatic cancer (9), cholangiocarcinoma (7), endometrial cancer (3), cervical cancer (2), lung cancer (7), mesothelioma (3), oesophageal cancer (3), cancer of the fallopian tube (1), trophoblast (1), renal cancer (1), gastric cancer (1), anal cancer (1), cancer of the thymus (1) and osteosarcoma (1).

With `C[C@H](NP(=O)(OC[C@H]1O[C@@H](n2ccc(N)nc2=O)C(F)(F)[C@@H]1O)Oc1ccccc1)C(=O)OCc1ccccc1` (stereo partly drawn) [NUC-1031, 2′-Deoxy-2′,2′-difluoro-D-cytidine-5′-O-[phenyl (benzoxy-L-alaninyl)] phosphate] the “Max Inhibition_%” value 5637 was 77.88%, the IC50 (5637; read-out: Ab IC50) was 200 nM and the IC50 (5637; read-out: relative IC50) was 120 nM. For the same molecule, the “Max Inhibition_%” value (A2780) was 79.15%, the IC50 (A2780; read-out: Ab IC50) was 25 nM and the IC50 (A2780; read-out: relative IC50) was 16 nM. For the same molecule, the “Max Inhibition_%” value (HT1376; CTG assay) was −2.54%, the IC50 (HT1376; read-out: Ab IC50) was greater than 1980 nM and the IC50 (HT1376; read-out: relative IC50) was greater than 1980 nM. For the same molecule, the “Max Inhibition_%” value (NCI-H1975) was 37.91%, the IC50 (NCI-H1975; read-out: Ab IC50) was greater than 1980 nM and the IC50 (NCI-H1975; read-out: relative IC50) was 370 nM. The “Max Inhibition_%” value (NCI-H460) was 91.98%, the IC50 (NCI-H460; read-out: Ab IC50) was 40 nM and the IC50 (NCI-H460; read-out: relative IC50) was 40 nM. The “Max Inhibition_%” value (OVCAR-3) was 11.76%, the IC50 (OVCAR-3; read-out: Ab IC50) was greater than 1980 nM and the IC50 (OVCAR-3; read-out: relative IC50) was 200 nM. The IC50 (SK-OV-3; read-out: Ab IC50) was 70 nM, the IC50 (SK-OV-3; read-out: relative IC50) was 60 nM and the “Max Inhibition_%” value (SK-OV-3; SK-OV3, CTG assay) was 61.59%. The anti-tumour activity ([1]; patients with advanced progressive cancers who exhausted standard options) was “anti-tumour activity” and the “levels of toxic metabolite dFdU released relative to gemcitabine” value ([1]; relative to levels normally associated with gemcitabine) was “less than half”.
